# Experimental data as given in US20240148835A1, “TREATING DISORDERS ASSOCIATED WITH DYRK1A DYSFUNCTION” (UNIVERSITY OF FLORIDA RESEARCH FOUNDATION, INCORPORATED, priority 2021, published 2024).
# “Also recorded” adds a separate entry of the source.
# Key:
# Dyrk1a cHets = assay: Chronic (1-3)IGF-1 treatment from P14: cortical and neuronal morphology; type: in vivo, mouse
# Procedure: To test whether administration of the active peptide (1-3)IGF-1 restores cortical growth in cHets, we utilized the following paradigm: controls and cHets were treated daily with either (1-3)IGF-1 or vehicle beginning at P14. A behavioral battery began at P56 and daily injections continued until the mice were sacrificed for downstream analysis (FIG. 17A). […] As the impact of loss-of-function Dyrk1a mutations on spine density has not been investigated in vivo, we measured spine density on primary neurites of layer V pyramidal neurons in the mPFC. […] Together, these findings indicate that chronic (1-3)IGF-1 treatment beginning at P14 rescues microcephaly and neuronal undergrowth in Dyrk1a cHets.
# (§1) (1-3)IGF-1 was acquired from VWR/Bachem (catalog #H-2468.1000) and dissolved in saline with 0.01% BSA fresh every day. Intraperitoneal injections of 10 mg kg′ (1-3)IGF-1 or vehicle were delivered daily at 8 a.m. starting on P14 and ending on P85. […] The S6K1 inhibitor PF-4708671 was acquired from Medkoo Biosciences (#406432) dissolved in 10% DMSO, 10% tween 80 and 80% water. (1-3)IGF-1 (10 mg kg′) and PF-4708671 (50 mg kg^−1) or vehicle were injected subcutaneously into pups from P0 to P7. Rapamycin was acquired from LC laboratories (R-5000) and dissolved in 4% ethanol, 5% tween-80, and 5% PEG400 in PBS. (1-3)IGF-1 (10 mg kg′) and Rapamycin (1 mg kg′) or vehicle were injected subcutaneously into pups from P0 to P7. SB216763 was acquired from TOCRIS (#1616) and dissolved in 5% DMSO and 0.9% saline in dH20. SB216763 (0.5 mg kg′) was injected subcutaneously into pups from P0 to P7.
# Adult animals were perfused with 4% PFA and pups underwent rapid decapitation and dissection. After 18 hours post-fixation in 4% PFA, brains were incubated in a 20% sucrose/PBS solution at 4° C. for 2-3 days and embedded in Tissue-Tek OCT compound (Sakura). 40 μm sections were collected on Superfrost/Plus slides and stained. DAPI was used for nuclear labeling (Invitrogen, catalog #D3571). Slides were mounted with Vectashield HardSet and images were obtained with an Olympus VS120 microscope and processed using the VS-DESKTOP software (Olympus) or ImageJ (NIH). Ventricle size was analyzed by drawing an ROI around the entire ventricle in 2-3 plane-matched sections per animal.
# Following rapid decapitation, brains were removed and processed using the FD Rapid Golgistain™ kit (FD Neurotechnologies, Columbia MD) following the manufacturer's instructions. A Leica vibrating microtome was used to cut 100 μm coronal sections in 6% sucrose in PBS. The sections were then mounted on gelatin-coated slides and stained using the FD Rapid Golgistain™ kit. Individual neurons were imaged using a Leica DM5500B 20× objective and reconstructed using Neuromantic software. After reconstruction, Sholl analysis was performed in ImageJ using the Simple Neurite Tracer. Primary neurites were selected for spine density analysis where the number of spines was counted and divided by the length of the neurite fragment. Soma size was measured using the ROI freehand tool on imageJ (NIH).
# ASD mouse models = details: cited from earlier work
# [1] = system: mouse model of Rett syndrome; details: chronic administration, same paradigm; cited from earlier work
# [2] = system: protein synthesis in the mPFC of cHets; assay: SUnSET puromycin incorporation assay (protein synthesis) in mPFC after (1-3)IGF-1 treatment; type: in vivo, mouse
# Procedure: Protein synthesis is a critical output of mTOR signaling, particularly downstream of P70 Ribosomal S6 Kinase (S6K1).
# as §1
# 300 μm coronal prefrontal cortical slices were obtained from postnatal day 7 (P7) and adult mice. Slices were allowed to recover in artificial cerebrospinal fluid (in mM: 124 NaCl, 2.8 KCl, 2 CaCl2, 1.25 NaH2P04, 1.25 MgSO4, 26 NaHCO3, 10 Dextrose) for 2 h at 32° C. Puromycin (5 μg ml-1) was applied to slices for 40 min at 32° C. to label newly synthesized proteins. Slices were then snap frozen on dry ice and stored at −80° C. until used. Protein (50 μg) was loaded on 4-12% gradient gels, transferred onto polyvinylidene difluoride membranes, and probed with anti-puromycin antibody (1:5,000, Millipore, MABE343). Anti-mouse HRP-tagged secondary antibody was used and chemiluminiscence was developed using standard ECL reagents. Quantification was done by measuring intensity of each lane from 14 to 191 kDa, subtracting it from the intensity of the unlabeled lane and normalized to loading control.
substance,measurement,setting,value
"(1-3)IGF-1: a tripeptide cleaved from the N-terminus of IGF-1; acquired from VWR/Bachem, CAS No. 32302-76-4 (GPE; Insulin-like growth factor 1; UniProt P05019 49-51, looked up, fragment)",neuronal complexity of layer V pyramidal neurons in the mPFC (Sholl analysis),"Dyrk1a cHets; daily from P14, adult cHets",restored the neuronal complexity; also recorded: rescued
same,soma size of layer V pyramidal neurons,"Dyrk1a cHets; daily from P14, adult cHets",restored the significantly smaller neuronal soma size; also recorded: rescued
same,ventricle area in cHets,"Dyrk1a cHets; daily from P14, adult cHets",normalized; also recorded: rescued
same,spine density of layer V pyramidal neurons in the mPFC,"Dyrk1a cHets; daily from P14, adult cHets, primary neurites",significantly increased; also recorded: partially restored
same,cortex mass (cortical growth) of cHets,"Dyrk1a cHets; daily i.p. 10 mg kg from P14, adult cHets",rescued cortical growth in cHets; also recorded: restored
same,cortex mass (cortical growth) of controls,"Dyrk1a cHets; daily i.p. 10 mg kg from P14, controls",no effect on controls
same,brain penetrance,"ASD mouse models; ASD mouse models, dosage 10 μg/g (10 mg kg)",brain penetrance
same,signaling downstream of IGF-1,ASD mouse models; within 3 hours post-injection,increased signaling downstream of IGF-1
same,"lifespan, motor coordination, cardiac function, microcephaly, spine density, and synaptic function",[1],significantly improved
same,puromycin incorporation (protein synthesis) in adult cHets,"[2]; adult, chronic treatment",significantly increased; also recorded: restores decreased protein synthesis
same,puromycin incorporation in adult controls,"[2]; adult, relative to vehicle-treated controls",significant decrease in puromycin incorporation
same,puromycin incorporation (protein synthesis) in neonatal cHets,[2]; daily treatment from P0 to P7,increased puromycin abundance; also recorded: restores decreased protein synthesis
same,puromycin incorporation in neonatal controls,[2]; daily treatment from P0 to P7,without impacting controls
